Experimental data: ChEMBL document CHEMBL1201862, “PubChem BioAssay data set” (2004)
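Grown in 96-well plates, cells were treated for 48 hours with each compound at five concentrations. Insufficient inhibition: endpoint recorded as highest concentration tested. GI50: concentration for 50% inhibition of growth.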 Active and inactive are the calls of the source. Rule as the data show it: active = GI50 up to about 1.1 µM and inactive = higher.

Assays:
Experiment in all cases: growth of human tumour cells (NCI), 48 h
LXFL 529 = test system: LXFL 529
KM-20L2 = test system: KM-20L2
RXF 631 = test system: RXF 631
SNB-78 = test system: SNB-78
DMS-273 = test system: DMS-273
DLD-1 = test system: DLD-1
XF498 = test system: XF498
M19-MEL = test system: M19-MEL
DMS-114 = test system: DMS-114

Measured: GI50

COC(=O)/C(=N\NC(N)=O)C(C(=O)C(=O)Nc1ccccc1C(=O)OC)c1nc2ccc(C(=O)c3ccccc3)cc2nc1O (centres undefined)
inactive: LXFL 529 > 100 µM | KM-20L2 > 100 µM | RXF 631 > 100 µM | SNB-78 > 100 µM | DMS-273 > 100 µM | DLD-1 > 100 µM | XF498 > 100 µM | M19-MEL > 100 µM | DMS-114 > 100 µM

CCOC(=O)C(=O)Nc1cccc(Cl)c1C
inactive: LXFL 529 > 100 µM | RXF 631 > 100 µM | SNB-78 > 100 µM | DLD-1 > 100 µM | XF498 49.8 µM | M19-MEL > 100 µM | DMS-114 > 100 µM

N#CCCN(c1ccc(C=O)cc1)S(=O)(=O)c1ccccc1
inactive: LXFL 529 > 100 µM | KM-20L2 > 100 µM | DMS-273 > 100 µM | XF498 > 100 µM | M19-MEL > 100 µM | DMS-114 > 100 µM

Cn1c(=O)nc2n(-c3ccc(Cl)cc3)c3ccc(Cl)cc3nc-2c1=O
inactive: KM-20L2 4.88 µM | SNB-78 14.8 µM

CCN(CC)CCn1c2c3ccccc3ccc2c2oc(=O)c3ccccc3c21
inactive: LXFL 529 > 100 µM | KM-20L2 > 100 µM | RXF 631 > 100 µM | SNB-78 > 100 µM | DLD-1 > 100 µM | XF498 > 100 µM | M19-MEL > 100 µM | DMS-114 > 100 µM

Cc1ccnc(NS(=O)(=O)c2ccc(NC3=CC(=O)C(=O)c4ccccc43)cc2)n1
inactive: LXFL 529 > 100 µM | KM-20L2 > 100 µM | RXF 631 > 100 µM | SNB-78 > 100 µM | DMS-273 > 100 µM | DLD-1 > 100 µM | XF498 > 100 µM | M19-MEL > 100 µM | DMS-114 > 100 µM

CC1=COC(=O)c2ccccc2N1
inactive: LXFL 529 > 100 µM | KM-20L2 > 100 µM | SNB-78 > 100 µM | DMS-273 > 100 µM | DLD-1 > 100 µM | M19-MEL > 100 µM | DMS-114 > 100 µM

CCN(CC)CCNC(=O)c1ccccc1NC(=O)C(=O)Nc1ccccc1C(=O)NCCN(CC)CC
inactive: KM-20L2 37.7 µM | RXF 631 > 100 µM | SNB-78 > 100 µM | DMS-273 > 100 µM | DLD-1 63.4 µM | M19-MEL 22.8 µM | DMS-114 32.2 µM

O=C(Nc1ccc(C(F)(F)F)cc1[N+](=O)[O-])C(=O)C(C(=O)c1ccc2ccccc2c1)C1OC(=O)c2ccccc21 (centres undefined)
inactive: LXFL 529 5.18 µM | KM-20L2 20.6 µM | SNB-78 10.1 µM | DLD-1 6.9 µM | M19-MEL 8.89 µM | DMS-114 8.71 µM

COc1cc2ccc3c4cc(OC)c(OC)cc4c[n+](C)c3c2cc1O
inactive: LXFL 529 12.6 µM | KM-20L2 > 100 µM | SNB-78 > 100 µM | DMS-273 55.5 µM | DLD-1 > 100 µM | XF498 24.7 µM | M19-MEL > 100 µM | DMS-114 8.99 µM

CCOC(=O)C(C(=O)c1ccccc1)=C1NCCN1
inactive: LXFL 529 > 100 µM | KM-20L2 > 100 µM | RXF 631 > 100 µM | DLD-1 > 100 µM | XF498 > 100 µM | M19-MEL > 100 µM

COS(=O)(=O)OCCC(NC(=O)OCc1ccccc1)C(=O)OCc1ccccc1 (centres undefined)
inactive: LXFL 529 > 100 µM | KM-20L2 > 100 µM | SNB-78 > 100 µM | DMS-273 > 100 µM | DLD-1 > 100 µM | M19-MEL > 100 µM | DMS-114 > 100 µM

O=C(N/N=C/c1cccc(O)c1O)N/N=C/c1cccc(O)c1O
inactive: LXFL 529 16.7 µM | KM-20L2 29.3 µM | SNB-78 34.8 µM | DMS-273 22.9 µM | XF498 19.1 µM | M19-MEL 22.4 µM | DMS-114 > 100 µM

O=c1cc(-c2ccccc2)c2cc3c(=O)ccoc3cc2o1
inactive: KM-20L2 > 100 µM | DMS-273 > 100 µM | DLD-1 77.4 µM | XF498 > 100 µM | M19-MEL > 100 µM | DMS-114 83 µM

COc1cc(-c2ccc(NC(=O)SCCC(=O)O)cc2OC)ccc1NC(=O)SCCC(=O)O
inactive: LXFL 529 > 100 µM | KM-20L2 > 100 µM | SNB-78 > 100 µM | DMS-273 > 100 µM | XF498 74.3 µM | M19-MEL > 100 µM | DMS-114 > 100 µM

C[Si](C)(C)OC1(C#N)C2C3CC4C2C(=O)C2C4C3C21 (centres undefined)
inactive: LXFL 529 > 100 µM | KM-20L2 > 100 µM | SNB-78 > 100 µM | DMS-273 > 100 µM | DLD-1 > 100 µM | M19-MEL > 100 µM | DMS-114 > 100 µM

CCCCN(CC)C(=O)C(=O)C1C(=O)Nc2ccccc2[S+]1[O-] (centres undefined)
inactive: LXFL 529 > 100 µM | KM-20L2 > 100 µM | SNB-78 > 100 µM | DMS-273 > 100 µM | DLD-1 > 100 µM | M19-MEL > 100 µM | DMS-114 > 100 µM

CN(C)CC/C(=N\Nc1ccccc1)c1ccccc1
inactive: SNB-78 11.8 µM | DLD-1 69.2 µM | XF498 3.89 µM | M19-MEL 25.2 µM | DMS-114 15.6 µM

CCN1N=CSC12C(=O)N(c1ccccc1)C(=O)N2c1ccccc1 (centres undefined)
inactive: LXFL 529 > 100 µM | KM-20L2 > 100 µM | RXF 631 > 100 µM | SNB-78 > 100 µM | DLD-1 > 100 µM | XF498 32.7 µM | DMS-114 57.8 µM

CC(C)(C)C1CCC(=O)C(C(O)CC2CC(=O)N(c3ccccc3)C(=O)C2)C1 (centres undefined)
inactive: LXFL 529 > 100 µM | KM-20L2 > 100 µM | RXF 631 56.8 µM | SNB-78 > 100 µM | DMS-273 > 100 µM | DLD-1 > 100 µM | XF498 > 100 µM | M19-MEL > 100 µM | DMS-114 > 100 µM

COc1ccc(S(=O)(=O)N(CC(=O)O)c2ccccc2)cc1
inactive: LXFL 529 > 100 µM | KM-20L2 > 100 µM | DMS-273 > 100 µM | DLD-1 > 100 µM | M19-MEL > 100 µM

COc1ccc(C2Cc3cc(OC)c(OC)c(OC)c3C2=O)cc1 (centres undefined)
inactive: KM-20L2 > 100 µM | SNB-78 > 100 µM | DMS-273 > 100 µM | DLD-1 > 100 µM | XF498 2 µM | M19-MEL > 100 µM | DMS-114 76.6 µM
